For one assay, the system named is T. cruzi epimastigotes. To be noted: at concentrations in the millimolar range; cited from earlier work.
Assay [1] concerns 15-epi-lipoxin A4 production by T. cruzi-infected EA.hy926 cells. Put plainly: 15-epi-lipoxin A4 quantification by DSA-TOF MS in culture supernatants. The assay is classed as cell-based, human. The note with it: 5 μM simvastatin. As for the experimental part:
8x10^5 EA.hy926 cells/well were cultured in 6-well plates (IMDM 10% SFB). […] 15-epi-LXA4 determination was performed by:
• ELISA assay: the supernatant from the cell cultures was assayed using a 15-epi-LXA4 BioAssay ELISA Kit (USBiological, USA) following manufacturer’s instructions. • AxION DSA—TOF MS determination: To determine 15-epi-lipoxin A4 levels in EAhy926 cell culture supernatants, an AxION Direct Sample Analysis (DSA) that was integrated with an AxION 2 time-of-flight (TOF) mass spectrometer (PerkinElmer, Shelton, CT, USA) was employed. For extraction, all of the samples were loaded onto a solid phase extraction and eluted with 1 mL chloroform three times successively. Then, the samples were transferred into a clean tube, and the chloroform in the samples was evaporated in a water bath. Finally, the samples were resuspended in 100 μL ethanol, and 10 μL were pipetted onto a stainless mesh. For the calibration curve, 15-epi-lipoxin A4 (cat#90415, Cayman Chemical, USA) was diluted in PBS to achieve different final concentrations (see S1 Fig). From each tube, 10 μL was pipetted onto a stainless mesh, and DSA—TOF determination was performed. The AxION DSA conditions were as follows: 5 μA corona current, 250°C heater temperature, 80 psi auxiliary gas (N2) pressure, 4 L/min drying gas (N2) flow, and 25°C drying gas (N2) temperature. […] Mass spectra were acquired with a mass range of 100–1000 m/z and an acquisition rate of 2 spectra/sec. To maintain mass accuracy, […] lock mass ions were used (m/z 119.0400, m/z 556.0000 and m/z 805.9900). All of the samples were analyzed for only 10 sec. The standards used were 15-epi-lipoxin A4 (cat#90415, Cayman Chemical,) and 5(S),6(R)-Lipoxin A4 methyl ester (cat#10033, Cayman Chemical) as an internal standard. These were confirmed in seconds by accurate mass and isotopic distribution of parent and fragment ions using DSA/TOF and AxION software, and compound identification was performed using the standards. All of the samples were analyzed in triplicate.

Regarding `CCC(C)(C)C(=O)O[C@H]1C[C@@H](C)C=C2C=C[C@H](C)[C@H](CC[C@@H]3C[C@@H](O)CC(=O)O3)[C@H]21` [Simvastatin], the Epimastigote proliferation entry in the assay with T. cruzi epimastigotes is given as “decreased epimastigote proliferation”. Further, the “15-epi-lipoxin A4 concentration (Mean ± SD)” value in assay [1] (3 hours) is 1.58 ± 0.21 ng/mL; in assay [1] (6 hours), 3.58 ± 1.22 ng/mL; in assay [1] (12 hours) it was 37.28 ± 11.23 ng/mL; in assay [1] (24 hours), 326 ± 34.25 ng/mL.
